# Source: US20200206350A1, “COMPOUNDS FOR REDUCING THE VISCOSITY OF BIOLOGICAL FORMULATIONS” (Merck Sharp & Dohme Corp., priority 2017, published 2020)
# Counter-ions that a name gives are not always drawn. Marks after values point to notes of the source that are not given here.
# Test system: Antibody B
# Experiment: Viscosity of Antibody B test formulations (mVROC viscometer)
# Type: physicochemical
# Conditions: 10 mM histidine buffer, 177 mg/mL Antibody B, 0.2 M excipient, pH 6.0
# Method: Antibody B formulations comprised the following: 10 mM histidine buffer, Antibody B at a concentration of 177 mg/mL and the test excipient (pegylated excipient of the invention, as described herein) at a concentration of 200 mM, pH adjusted to pH 6.0. The Antibody B formulation without excipients consisted of 177 mg/mL Antibody B in 10 mM histidine buffer at pH 6.0. The 10 mM histidine buffer used with Antibody B consisted of 10 mM L-histidine in sterile water, pH adjusted to 6.0.
# (§1) All viscosity measurements were conducted using the mVROC (Viscometer/Rheometer-On-A-Chip, RheoSense, Inc., San Ramon, Calif.). The test formulations were placed into a 250 μl Hamilton air-tight syringe, which was then placed inside the syringe jacket of the mVROC. The instrument injected formulation into the chip for viscosity measurement at an appropriate flow rate. Most measurements were done in duplicates.
SMILES,Viscosity 1,Viscosity 2,Viscosity Average
"COCCOCCN(CCOCCOC)[C@@H](CCCNC(=N)N)C(=O)O [Example 8, (S)-2-(bis(2-(2-methoxyethoxy)ethyl)amino)-5-guanidinopentanoic acid dihydrochloride]",22.25 mPa-s,22.19 mPa-s,22.22 mPa-s
"COCCOCCN(CCOCCOC)[C@@H](Cc1c[nH]cn1)C(=O)O [Example 9, (S)-2-(bis(2-(2-methoxyethoxy)ethyl)amino)-3-(1H-imidazol-4-yl)propanoic acid dihydrochloride]",26.55 mPa-s,26.67 mPa-s,26.61 mPa-s

# Test system: pembrolizumab
# Experiment: Viscosity of pembrolizumab test formulations (mVROC viscometer)
# Type: physicochemical
# Conditions: 10 mM histidine buffer, 200 mg/mL pembrolizumab, 0.2 M excipient, pH 5.5
# Method: Pembrolizumab formulations comprised the following: 10 mM histidine buffer, pembrolizumab at a concentration of 200 mg/mL, and the test excipient (pegylated excipient of the invention, as described herein) at a concentration of 200 mM, pH adjusted to pH 5.5. Pembrolizumab formulations without excipients consisted of 200 mg/mL pembrolizumab in 10 mM histidine buffer at pH 5.5. The 10 mM histidine buffer used with pembrolizumab formulations consisted of consists of 10 mM L-histidine in sterile water, pH adjusted to 5.5.
# as §1
SMILES,Viscosity 1,Viscosity 2,Viscosity Average
"N=C(N)NCCC[C@H](N)C(=O)O [Arginine, reference compound]",30.25 mPa-s,30.55 mPa-s,30.40 mPa-s
"COCCOCCOCC(=O)N[C@@H](Cc1c[nH]cn1)C(=O)O [Example 1, (S)-12-((1H-imidazol-4-yl)methyl)-10-oxo-2,5,8-trioxa-11-azatridecan-13-oic acid]",23.12 mPa-s,23.27 mPa-s,23.20 mPa-s
"COCCOCCOCC(=O)N[C@@H](CCCNC(=N)N)C(=O)O [Example 2, (S)-12-(3-guanidinopropyl)-10-oxo-2,5,8-trioxa-11-azatridecan-13-oic acid]",22.05 mPa-s,22.24 mPa-s,22.15 mPa-s
"COCCOCCN(C(=O)COCCOC)[C@@H](CCCNC(=N)N)C(=O)O [Example 3, (S)-5-guanidino-2-(2-(2-methoxyethoxy)-N-(2-(2-methoxyethoxy)ethyl)acetamido)pentanoic acid]",21.12 mPa-s,21.18 mPa-s,21.15 mPa-s
"COCCOCCN(C(=O)COCCOC)[C@@H](Cc1c[nH]cn1)C(=O)O [Example 4, (S)-3-(1H-imidazol-4-yl)-2-(2-(2-methoxyethoxy)-N-(2-(2-methoxyethoxy)ethyl)acetamido)propanoic acid]",19.64 mPa-s,19.28 mPa-s,19.46 mPa-s
"COCCOCCN(CCOCCOC)[C@@H](CCCNC(=N)N)C(=O)O [Example 5, (S)-2-(bis(2-(2-methoxyethoxy)ethyl)amino)-5-guanidinopentanoic acid]",18.02* *Ave- rage of 4 values mPa-s,18.37* *Ave- rage of 4 values mPa-s,18.19** **Ave- rage of 8 values mPa-s
"COCCOCCN(CCOCCOC)[C@@H](Cc1c[nH]cn1)C(=O)O [Example 6, (S)-2-(bis(2-(2-methoxyethoxy)ethyl)amino)-3-(1H-imidazol-4-yl)propanoic acid]",17.57* *Ave- rage of 3 values mPa-s,18.10* *Ave- rage of 3 values mPa-s,17.83** **Ave- rage of 6 values mPa-s
"COCCOCC(=O)N[C@@H](CCCCN)C(=O)O [Example 10, (S)-6-amino-2-(2-(2-methoxyethoxy)acetamido)hexanoic acid]",26.39 mPa-s,26.35 mPa-s,26.37 mPa-s
"COCCOCCN(CCOCCOC)[C@@H](CCCCN)C(=O)O [Example 11, (S)-6-amino-2-(bis(2-(2-methoxyethoxy)ethyl)amino)hexanoic acid]",21.36 mPa-s,21.50 mPa-s,21.43 mPa-s
"COCCOCCN[C@@H](Cc1c[nH]cn1)C(=O)O [Example 12, (S)-3-(1H-imidazol-4-yl)-2-((2-(2-methoxyethoxy)ethyl)amino)propanoic acid]",22.19 mPa-s,22.33 mPa-s,22.26 mPa-s
"COCCOCC(=O)N[C@@H](Cc1c[nH]cn1)C(=O)O [Example 13, (2-(2-methoxyethoxy)acetyl)-L-histidine]",20.05 mPa-s,20.09 mPa-s,20.07 mPa-s
"COCCOCCN[C@@H](CCCNC(=N)N)C(=O)O [Example 14, (S)-5-guanidino-2-((2-(2-methoxyethoxy)ethyl)amino)pentanoic acid]",24.59 mPa-s,24.76 mPa-s,24.68 mPa-s
"COCCOCC(=O)N[C@@H](CCCNC(=N)N)C(=O)O [Example 15, (2-(2-methoxyethoxy)acetyl)-L-arginine dihydrochloride]",18.67 mPa-s,–,18.67 mPa-s
COCCOCCOCCOCC(=O)N[C@@H](Cc1c[nH]cn1)C(=O)O [Example 16],23.33 mPa-s,23.54 mPa-s,23.44 mPa-s
"COCCOCCOCCOCC(=O)N[C@@H](CCCNC(=N)N)C(=O)O [Example 17, (2,5,8,11-tetraoxatridecan-13-oyl)-L-arginine]",23.09 mPa-s,22.82 mPa-s,22.96 mPa-s
"COCCOCCOCCOCCN[C@@H](Cc1c[nH]cn1)C(=O)O [Example 18, (2,5,8,11-tetraoxatridecan-13-yl)-L-histidine]",22.82 mPa-s,22.47 mPa-s,22.65 mPa-s
"COCCOCCOCCN[C@@H](Cc1c[nH]cn1)C(=O)O [Example 19, (2-(2-(2-methoxyethoxy)ethoxy)ethyl)-L-histidine]",26.58 mPa-s,26.83 mPa-s,26.71 mPa-s
"N=C(N)NCCC[C@@H](C(=O)O)N(CCOCCO)CCOCCO [Example 20, (S)-2-(bis(2-(2-hydroxyethoxy)ethyl)amino)-5-guanidinopentanoic acid]",25.28 mPa-s,25.42 mPa-s,25.35 mPa-s
"O=C(O)[C@H](Cc1c[nH]cn1)N(CCOCCO)CCOCCO [Example 21, (S)-2-(bis(2-(2-hydroxyethoxy)ethyl)amino)-3-(1H-imidazol-4-yl)propanoic acid]",23.19 mPa-s,23.16 mPa-s,23.18 mPa-s
COCCOCC(=O)N[C@@H](Cc1ccccc1)C(=O)O [Example 22],17.77 mPa-s,17.63 mPa-s,17.70 mPa-s
"COCCOCC(=O)N[C@@H](Cc1ccc(O)cc1)C(=O)O [Example 23, (2-(2-methoxyethoxy)acetyl)-L-tyrosine]",20.15 mPa-s,20.09 mPa-s,20.12 mPa-s
"N[C@@H](Cc1c[nH]cn1)C(=O)O [Histidine, reference compound]",35.79 mPa-s,35.32 mPa-s,35.56 mPa-s
